Experimental data as given in US20020052409A1, “Compounds and methods for treating mitochondria-associated diseases” (priority 1998, published 2002).

Key:
[1] = test system: SH-SY5Y neuroblastoma cells; experiment: Ionomycin-induced apoptosis in neuroblastoma cells (membrane blebbing, light microscopy); assay type: cell-based, human; conditions: 2 mM, simultaneously with 10 μM ionomycin; 6h incubation; ionomycin alone approximately 80%, untreated <5%
Method: SH-SY5Y neuroblastoma cells (1×10^5 cells) were rinsed with one volume 1X PBS, and then treated with 10 μM ionomycin (Calbiochem, San Diego, Cass.) in DMEM supplemented with 10% fetal calf serum (FCS) (Gibco, Life Technologies, Grand Island, N.Y.) for 10 minutes, followed by two washes with DMEM (10% FCS). After 6h incubation at 37° C. in DMEM (10% FCS), cells were visualized by light microscopy (20X magnification). […] When cells were simultaneously treated with ionomycin and 2 mM creatine, the proportion of cells undergoing apoptosis as evidenced by membrane blebbing was reduced to approximately 10%.

[2] = test system: human cytoplasmic hybrid (“cybrid”) cells; experiment: Assay for mitochondrial permeability transition using DASPMI (ionomycin-induced fluorescence decay); assay type: cell-based; conditions: DASPMI-loaded cybrid cells, ionomycin induced membrane potential collapse
Description: B. Assay for Mitochondrial Permeability Transition (MPT) Using 2-,4-Dimethvlaminostyryl-N-Methvlpyridinium (DASPMI).
According to this assay, one may determine the ability of a mitochondria protecting agent of the invention to inhibit the loss of mitochondrial membrane potential that accompanies mitochondrial dysfunction. […] This loss of membrane potential or mitochondrial permeability transition (MPT) can be quantitatively measured using the mitochondria-selective fluorescent probe 2-,4-dimethylaminostyryl-N-methylpyridinium (DASPMI).
Upon introduction into cell cultures, DASPMI accumulates in mitochondria in a manner that is dependent on, and proportional to, mitochondrial membrane potential. If mitochondrial function is disrupted in such a manner as to compromise membrane potential, the fluorescent indicator compound leaks out of the membrane bounded organelle with a concomitant loss of detectable fluorescence. Fluorimetric measurement of the rate of decay of mitochondria associated DASPMI fluorescence provides a quantitative measure of loss of membrane potential, or MPT.
Culture supernatants are then removed and various concentrations of candidate mitochondria protecting agents diluted into HBSS from DMF stocks, or vehicle controls, are added at various concentrations. Mitochondria protecting agents are introduced to cells either before, or at the same time as, introduction of the cells to ionomycin (described below).
Fluorescence of each microculture in the 96-well plate is quantified immediately using a Molecular Devices fmax™ fluorimetric plate reader (Molecular Devices Corp., Sunnyvale, Calif.; excitation wavelength=485 nm; emission wavelength=590 nm) and to fluorescence is recorded. Thereafter, induction of mitochondrial membrane potential collapse is initiated by the addition of ionomycin (Calbiochem, San Diego, Calif.). Ionomycin stock solutions of various concentrations from 0.1-40 μM are prepared in warm Hank's balanced salt solution (HBSS) and diluted for addition to cells to achieve a final concentration of 0.05-20 μM, with final concentrations of 4-10 μM being preferred. Fluorescence decay of DASPMI-loaded, ionomycin induced cells is monitored as a function of time from 0-500 seconds following addition of ionomycin. The maximum negative slope (V-max) is calculated from a subset of the data using analysis software provided by the fluorimetric plate reader manufacturer. In addition, the initial and final signal intensities are determined and the effects of candidate mitochondria protecting agents on the rate of signal decay are quantified.

1685 cells [3] = experiment: Thapsigargin induced apoptosis (cell death, propidium iodide); assay type: cell-based, human; conditions: for cytotoxicity at 100 µM: Homo sapiens, read-out: % Non-Viable Cells with Thapsigargin and with Cmpd.; for cytotoxicity at 100 µM / % Non-Viable Cells with Thapsigargin and with Cmpd.: thapsigargin 1 μM plus agent 100 μM, 24 hours; for Δ Cell Viability: [% Non-Viable Cells (with Thapsigargin, without Cmpd)] − [% Non-Viable Cells (with Thapsigargin, with Cmpd)], agent 100 μM
Method: In another aspect of the apoptosis assays, the ratio of living to dead cells, or the proportion of dead cells, in a population of cells exposed to an apoptogen is determined as a measure of the ultimate consequence of apoptosis. Living cells can be distinguished from dead cells using any of a number of techniques known to those skilled in the art.
In order to determine the effect of compounds of this invention on the final endpoint of apoptosis (cell death), the following assays were carried out. […] Cells were plated (3×10^4 cells per well) on 96-well plates 48 hours prior to thapsigargin treatment. Thapsigargin (Calbiochem, La Jolla, Calif.) alone (final concentration, 1 μM), thapsigargin (1 μM) plus agent final concentration, 100 μM), agent alone (100 μM) in growth media, or growth media devoid of both thapsigargin and agent, were added to cells in four separate wells.
Twenty-four hours after thapsigargin +/− agent treatment, propidium iodide (Sigma Chemical Co., St. Louis, Mo.) was added to each well at a final concentration of 10 μg/ml per well. […] The resulting fluorescence values correspond to cells in the monolayer of a well that are non-viable.
(§1) Next, the media was aspirated, and the monolayer was fixed (killed) by adding 100 μl of 100% ethanol to each well followed by incubation at ambient temperature for 10 minutes. The fluorescense in each well was then read again. The fluorescence values resulting from the second reading correspond to the total number of cells (whether viable or non-viable at the time of the initial fluorescence reading) present in the monolayer of a well.

1685 cells [4] = experiment: Cytotoxic effects of compounds, no thapsigargin (propidium iodide); assay type: cell-based, human
Method: In order to determine the effect of compounds of this invention on the final endpoint of apoptosis (cell death), the following assays were carried out. The cells used were 1685 cells, “1685” being the designation of a cybrid cell line derived from SH-SY5Y and containing mitochondria from a patient having Alzheimer's disease (see U.S. Pat. No. 5,888,498, issued Mar. 30, 1999, hereby incorporated by reference). Cells were plated (3×10^4 cells per well) on 96-well plates 48 hours prior to thapsigargin treatment. Thapsigargin (Calbiochem, La Jolla, Calif.) alone (final concentration, 1 μM), thapsigargin (1 μM) plus agent final concentration, 100 μM), agent alone (100 μM) in growth media, or growth media devoid of both thapsigargin and agent, were added to cells in four separate wells.
Twenty-four hours after thapsigargin +/− agent treatment, propidium iodide (Sigma Chemical Co., St. Louis, Mo.) was added to each well at a final concentration of 10 μg/ml per well. The cells were incubated at ambient temperature for 10 minutes, after which the fluorescence (excitation max=536 nm, 544 nm used for excitation; emission max=617, readings at 612 nm) was determined for each individual well in a fmax™ fluorescence microplate reader (Molecular Devices, Sunnyvale, Calif.). The resulting fluorescence values correspond to cells in the monolayer of a well that are non-viable.
as §1
The results, presented in Table 4 below, are expressed as the percentage of non-viable cells as a proportion of the […] cells (fixed controls).
The ΔCell Viability values resulting from treating cells with agents in this class in the absence of thapsigargin (Table 4, infra) closely parallel the ΔCell Viability values that result when cells are treated with the respective agent and thapsigargin ([…]).

[5] = test system: cybrid cells (MixCon, 1685 cells); experiment: Ionomycin induced apoptosis in cybrid cells: cytochrome c release (ProteinChip/SELDI); assay type: cell-based, human; conditions: 100 μM at the same time ionomycin (10 μM) was introduced; FIGURE
Description: In another aspect of the apoptosis assays, quantification of the mitochondrial protein cytochrome c that has leaked out of mitochondria in apoptotic cells may provide an apoptosis indicator that can be readily determined (Liu et al., Cell 86:147-157, 1996). Such quantification of cytochrome c may be performed spectrophotometrically, immunochemically or by other well established methods for detecting the presence of a specific protein. Release of cytochrome c from mitochondria in cells challenged with apoptotic stimuli (e.g., ionomycin, a well known calcium ionophore) can be followed by a variety of immunological methods. Matrix-assisted laser desorption ionization time of flight mass (MALDI-TOF) spectrometry coupled with affinity capture is particularly suitable for such analysis since apo-cytochrome c and holo cytochrome c can be distinguished on the basis of their unique molecular weights. […] The molecular weight of the protein is determined by its time of flight to the detector of the SELDI mass spectrometer. […]
Cytochrome c antibody was covalently bound to solid support chips containing a pre-activated surface (ProteinChip, Ciphergen, Palo Alto, Calif.). […] After removal of the Tris-saline buffer, the chip was rinsed with 1× PBS and was ready for capture of the antigen. […]

Row | Structure (SMILES) | Δ Cell Viability (1685 cells [3]) | % Non-Viable Cells with Thapsigargin and with Cmpd. (1685 cells [3]) | further results
1 | CN(CC(=O)O)C(=N)N [Creatine] | – | – | proportion of cells undergoing apoptosis as evidenced by membrane blebbing [1]: approximately 10%; IC50 [2]: 2000 µM
2 | CN(Cc1cc(C(C)(C)C)c(O)c(C(C)(C)C)c1)NC(=N)N [Compound (4)] | 2.1% | – | IC50 [2]: 10 µM; cytotoxicity at 100 µM (1685 cells [3]): 43.8%
3 | N=C(N)Nc1ccccc1CO [(19)] | – | 44.3% | –
4 | COc1cc(NC(=N)N)cc(OC)c1OC [(3)] | – | 46.7% | –
5 | CC(C)(C)c1cc(CNNC(=N)N)cc(C(C)(C)C)c1O [Compound (1)] | 3.2% | – | ΔCell Viability (1685 cells [3]; (+thapsigargin, −compound)—(+thapsigargin, +compound), approximate values): about 3.5; cytotoxicity at 100 µM (1685 cells [3]): 38.3%
6 | N=C(N)NC(=N)Nc1ccc(C(=O)O)cc1 [(34)] | 2.9% | 42.4% | –
7 | CCCCCCOc1ccc(NC(=N)N)cc1 [(16)] | – | 121.2% | Δ Cell Viability (1685 cells [4]): −106.7%
8 | N=C(N)Nc1cc(C(F)(F)F)cc(C(F)(F)F)c1 [(14)] | – | 47.9% | –
9 | N=C(N)Nc1ccc(F)cc1 [(17)] | – | 56.9% | Δ Cell Viability (1685 cells [4]): −23.6%
10 | COc1cc(NC(=N)N)c(Cl)cc1C(=O)O [(13)] | – | 52.8% | Δ Cell Viability (1685 cells [4]): −22.2%
11 | N=C(N)NCCc1ccc(O)c(O)c1 [(28)] | – | 52.3% | –
12 | N=C(N)Nc1ccc(N2CCOCC2)cc1 [(27)] | 7.9% | 42.5% | –
13 | COc1cc(C(=O)O)ccc1NC(=N)N [(12)] | 1.8% | 37.5% | –
14 | CCCCCCCCc1ccc(NC(=N)N)cc1 [Compound (31)] | – | 100.0% | Δ Cell Viability (1685 cells [4]): −83.5%
15 | N=C(N)NC(=N)Nc1ccccc1 [(1 1)] | – | – | cytochrome c release [5]: attenuation of cytochrome release
16 | N=C(N)Nc1ccc(O)c(C(=O)O)c1 [(23)] | 0.6% | 49.8% | –
17 | CCCCCCCCc1ccc(O)c(NC(=N)N)c1 [Compound (6)] | – | – | Δ Cell Viability (1685 cells [4]; no thapsigargin, [% Non-Viable Cells (without Cmpd)] − [% Non-Viable Cells (with Cmpd)]): −109.0%; % Non-Viable Cells with Cmpd. (1685 cells [4]; no thapsigargin, agent alone 100 μM, 24 hours): 125.2%; cytotoxicity at 100 µM (1685 cells [3]): 122%
18 | NC1=NCCN1CC(=O)O [Cyclocreatine] | – | – | IC50 [2]: 3000 µM
19 | N=C(N)Nc1cc(F)cc(F)c1 [(15)] | – | 42.2% | –
20 | N=C(N)Nc1ccc(C(=O)O)cc1 [4-Guanidinobenzoic Acid] | – | – | IC50 [2]: 1000 µM
